Non-standard residues stand in square brackets, D forms with d. Residues, ends and D or L forms follow the SMILES beside them. *: point of attachment. Myristoyl = CCCCCCCCCCCCCC(=O)*; Octanoyl = CCCCCCCC(=O)*
Assays:
[1] = Stability of conjugates in Simulated Gastric Fluid (SGF); assay type: in vitro ADME; details: simulated gastric fluid pH 1.6 with pepsin, 1 μM, 37° C.
Summary of the method: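 Compounds at 1 μM (from 1 mM DMSO stock) were incubated at 37°C in simulated gastric fluid, NaCl pH 1.6 with FaSSIF powder and 0.1 mg/mL pepsin. Aliquots taken at T0 and regular intervals were quenched with an equal volume of acetonitrile and analysed by LC/MS for degradation rate.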

[2] = In vitro Colonic Material Stability Assay; assay type: in vitro ADME; details: for Assay 3 (% Remaining at 24 h): colonic material slurry, anaerobic, 1 or 10 μM; for Selective delivery to the colon (conclusion from Table 2): from SGF, SIF and colonic material stability
Summary of the method: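 Compounds were added at 1 or 10 μM final to colonic material slurry (6.7 μL of 15% w/v slurry per 1 mL YCFAC or similar medium). Samples taken at 0–2880 min were acetonitrile-quenched and the remaining compound quantified by LC/MS.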

[3] = Stability of conjugates in Simulated Intestinal Fluid (SIF); assay type: in vitro ADME; details: simulated intestinal fluid pH 6.7 with pancreatin, 1 μM, 37° C.
Summary of the method: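 Conjugates at 1 μM (from 1 mM DMSO stock) were incubated with agitation at 37° C. in freshly made SIF: FaSSIF powder plus pancreatin in pH 6.7 phosphate buffer. Aliquots taken at T0 and at regular intervals were quenched with 1 volume acetonitrile, and LC/MS gave degradation rates.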

[4] = system: E. coli BL21(DE3); assay: Payload release in the presence of fecal matter, ClbP negative E. coli; assay type: cell-based; details: 10 μM compound, anaerobic, 37° C., 20 h, LCMS
Excerpt: (§1) This example is representative of the methods described in Example 103. Fecal samples were subjected to metagenomic whole-genome shotgun sequencing followed by querying the dataset for the presence of the clbP gene or by attempting to amplify the gene with primers specific for it by qPCR. Samples that gave a signal below the detection limit were used in subsequent steps. The fecal sample was resuspended as a 15% (w/v) slurry in Anaerobic Phosphate Buffer Saline.
(§2) Following steps 1 and 2 as detailed in Example 98, E. coli CFT073 ATCC 700928, E. coli Nissle 1917, or E. coli BL21(DE3) were grown in liquid culture.
(§3) In an anaerobic chamber, the E. coli strains were added to the fecal samples obtained in step 1 at a dilution level calculated to represent 0, 1, 10, 50, 90, 99, or 100% of all organisms present in PRAS dilution blank on a 200 μL volume. The test compound (10 μM final concentration) was added to the mixture. The test compound was also added to a bacteria-free media control under similar conditions. The plate was sealed and incubated at 37° C. for 20 h. Under similar conditions, a standard curve of both the starting material and the payload compound was made in bacteria-free media.
(§4) After 20 h, an aliquot was tested for breakdown and release of a payload by LCMS by diluting serially to a final dilution of 1:100 first with Acetonitrile (10× dilution) and then with (1:1) Mobile Phase A-0.1% Formic Acid in Water:Mobile Phase B-0.1% Formic acid in Acetonitrile (1 OX dilution), with absolute quantification compared to the external standard curve. In an ideal case, the amount of payload released in the reaction(s) with ClbP-encoding E. coli was >75% of the theoretical maximum, and none was released in the E. coli BL21(DE3) and media-alone conditions. In an acceptable case, the amount of payload released in the reaction(s) with ClbP-encoding E. coli was 25-75% of the theoretical maximum, and <25% of the theoretical maximum was released in the E. coli BL21(DE3) and media-alone conditions. In a non-preferred case, the amount of payload released in the reactions(s) with ClbP-encoding E. coli was <25% of the theoretical maximum, and >25% of the theoretical maximum was released in the E. coli BL21(DE3) and media-alone conditions.

[5] = system: E. coli Nissle 1917; assay: Payload release in the presence of fecal matter, ClbP positive E. coli; assay type: cell-based; details: 10 μM compound, anaerobic, 37° C., 20 h, LCMS
Excerpt: as §1, §2, §3, §4

In the case of `CCCCCCCCCCCCCC(=O)N[C@H](CC(N)=O)C(=O)N[C@@H](C)C(=O)OC` [Example 1, Methyl tetradecanoyl-D-asparaginyl-L-alaninate] (Myristoyl-[dN]-Ala-OMe), the “Assay 1 (SGF) (% Remaining @ 1 hours)” value [1] is reported as “C (>75% of the tested compound remaining)”, the “Assay 3 (% Remaining at 24 h)” value [2] is reported as “A (<25% of the tested compound remaining)” and the “Assay 2 (SIF) (% @ Remaining 4 hours)” value [3] is reported as “A (<25% of the tested compound remaining)”.
In the case of `CCCCCCCC(=O)N[C@H](CC(N)=O)C(=O)N[C@@H](C)C(=O)OC` [Example 2, Methyl octanoyl-D-asparaginyl-L-alaninate] (Octanoyl-[dN]-Ala-OMe), the “Assay 1 (SGF) (% Remaining @ 1 hours)” value [1] is reported as “C (>75% of the tested compound remaining)”, the “Assay 3 (% Remaining at 24 h)” value [2] is reported as “C (>75% of the tested compound remaining)” and the “Assay 2 (SIF) (% @ Remaining 4 hours)” value [3] is reported as “A (<25% of the tested compound remaining)”.
In the case of `CCCCCCCC(=O)N[C@@H](CC(N)=O)C(=O)N[C@@H](C)C(=O)OC` [Example 4, Methyl octanoyl-L-asparaginyl-L-alaninate] (Octanoyl-Asn-Ala-OMe), the “Assay 1 (SGF) (% Remaining @ 1 hours)” value [1] is reported as “C (>75% of the tested compound remaining)”, the “Assay 3 (% Remaining at 24 h)” value [2] is reported as “A (<25% of the tested compound remaining)” and the “Assay 2 (SIF) (% @ Remaining 4 hours)” value [3] is reported as “A (<25% of the tested compound remaining)”.
In the case of `CCCCCCCC(=O)N[C@H](CC(N)=O)C(=O)N[C@H](C)C(=O)OC` [Example 5, Methyl octanoyl-D-asparaginyl-D-alaninate] (Octanoyl-[dN]-[dA]-OMe), the “Assay 1 (SGF) (% Remaining @ 1 hours)” value [1] is reported as “C (>75% of the tested compound remaining)”, the “Assay 3 (% Remaining at 24 h)” value [2] is reported as “C (>75% of the tested compound remaining)” and the “Assay 2 (SIF) (% @ Remaining 4 hours)” value [3] is reported as “C (>75% of the tested compound remaining)”.
For `CCCCCCCC(=O)N[C@H](CC(N)=O)C(=O)N[C@H](C(=O)OC)C(C)C` [Example 6, Methyl octanoyl-D-asparaginyl-L-valinate] (Octanoyl-[dN]-Val-OMe), the “Assay 1 (SGF) (% Remaining @ 1 hours)” value [1] was “C (>75% of the tested compound remaining)”, the “Assay 3 (% Remaining at 24 h)” value [2] was “B (25-75% of the tested compound remaining)” and the “Assay 2 (SIF) (% @ Remaining 4 hours)” value [3] was “A (<25% of the tested compound remaining)”.
With `CCCCCCCC(=O)N[C@H](CC(N)=O)C(=O)N[C@@H](CC(C)C)C(=O)OC` [Example 7, Methyl octanoyl-D-asparaginyl-L-leucinate] (Octanoyl-[dN]-Leu-OMe) the “Assay 1 (SGF) (% Remaining @ 1 hours)” value [1] was “C (>75% of the tested compound remaining)”, the “Assay 3 (% Remaining at 24 h)” value [2] was “A (<25% of the tested compound remaining)” and the “Assay 2 (SIF) (% @ Remaining 4 hours)” value [3] was “A (<25% of the tested compound remaining)”.
In the case of `CCCCCCCC(=O)N[C@H](CCC(=O)O)C(=O)N[C@@H](C)C(=O)OC` [Example 9, (R)-5-(((S)-1-methoxy-1-oxopropan-2-yl)amino)-4-octanamido-5-oxopentanoic acid] (Octanoyl-[dE]-Ala-OMe), the “Assay 1 (SGF) (% Remaining @ 1 hours)” value [1] is reported as “C (>75% of the tested compound remaining)”, the “Assay 3 (% Remaining at 24 h)” value [2] is reported as “B (25-75% of the tested compound remaining)” and the “Assay 2 (SIF) (% @ Remaining 4 hours)” value [3] is reported as “B (25-75% of the tested compound remaining)”.
In the case of `CCCCCCCC(=O)N[C@H](CCC(N)=O)C(=O)N[C@@H](C)C(=O)OC` [Example 10, Methyl octanoyl-D-glutaminyl-L-alaninate] (Octanoyl-[dQ]-Ala-OMe), the “Assay 1 (SGF) (% Remaining @ 1 hours)” value [1] is reported as “C (>75% of the tested compound remaining)”, the “Assay 3 (% Remaining at 24 h)” value [2] is reported as “C (>75% of the tested compound remaining)” and the “Assay 2 (SIF) (% @ Remaining 4 hours)” value [3] is reported as “C (>75% of the tested compound remaining)”.
With `CCCCCCCC(=O)N[C@H](CCCNC(=N)N)C(=O)N[C@@H](C)C(=O)OC` [Example 11, Methyl octanoyl-D-arginyl-L-alaninate] (Octanoyl-[dR]-Ala-OMe) the “Assay 1 (SGF) (% Remaining @ 1 hours)” value [1] was “C (>75% of the tested compound remaining)”, the “Assay 3 (% Remaining at 24 h)” value [2] was “C (>75% of the tested compound remaining)” and the “Assay 2 (SIF) (% @ Remaining 4 hours)” value [3] was “A (<25% of the tested compound remaining)”.
For `COC(=O)[C@H](C)NC(=O)[C@@H](CC(N)=O)NC(=O)[C@@H](C)c1ccc2cc(OC)ccc2c1` [Example 18, Methyl ((S)-2-(6-methoxynaphthalen-2-yl)propanoyl)-D-asparaginyl-L-alaninate], the “Assay 1 (SGF) (% Remaining @ 1 hours)” value [1] was “C (>75% of the tested compound remaining)”, the “Assay 3 (% Remaining at 24 h)” value [2] was “C (>75% of the tested compound remaining)” and the “Assay 2 (SIF) (% @ Remaining 4 hours)” value [3] was “A (<25% of the tested compound remaining)”.
With `CCCCCCCCCCCCCC(=O)N[C@H](CC(N)=O)C(=O)NCCCC(=O)OC` [Example 20, Methyl (R)-4-(4-amino-4-oxo-2-tetradecanamidobutanamido)butanoate] the “Assay 1 (SGF) (% Remaining @ 1 hours)” value [1] was “C (>75% of the tested compound remaining)”, the “Assay 3 (% Remaining at 24 h)” value [2] was “A (<25% of the tested compound remaining)” and the “Selective delivery to the colon (conclusion from Table 2)” value (“Selective delivery to the colon” for short) [2] was “can be selectively delivered to the colon”. For the same compound, the “Assay 2 (SIF) (% @ Remaining 4 hours)” value [3] was “B (25-75% of the tested compound remaining)”.
In the case of `CCCCCCCCCCCCCC(=O)N[C@H](CC(N)=O)C(=O)N[C@@H](C)CCC(=O)OC` [Example 21, Methyl (S)-4-((R)-4-amino-4-oxo-2-tetradecanamidobutanamido)pentanoate], the “Assay 1 (SGF) (% Remaining @ 1 hours)” value [1] is reported as “C (>75% of the tested compound remaining)”, the “Assay 3 (% Remaining at 24 h)” value [2] is reported as “B (25-75% of the tested compound remaining)” and the “Selective delivery to the colon” value [2] is reported as “can be selectively delivered to the colon”. For the same compound, the “Assay 2 (SIF) (% @ Remaining 4 hours)” value [3] was “C (>75% of the tested compound remaining)”.
For `CCCCCCCCCCCCCC(=O)N[C@H](CC(N)=O)C(=O)Nc1ccc(COC)cc1` [Example 22, (R)—N1-(4-(methoxymethyl)phenyl)-2-tetradecanamidosuccinamide], the “Assay 1 (SGF) (% Remaining @ 1 hours)” value [1] was “C (>75% of the tested compound remaining)”, the “Assay 3 (% Remaining at 24 h)” value [2] was “A (<25% of the tested compound remaining)” and the “Selective delivery to the colon” value [2] was “can be selectively delivered to the colon”. For the same compound, the “Assay 2 (SIF) (% @ Remaining 4 hours)” value [3] was “C (>75% of the tested compound remaining)”.
In the case of `CCCCCCCCCCCCCC(=O)N[C@H](CC(N)=O)C(=O)N[C@@H](C)CCC(=O)O[C@]1(CC)C(=O)OCc2c1cc1n(c2=O)Cc2c-1nc1ccc(O)cc1c2CC` [Example 35, (S)-4,11-diethyl-9-hydroxy-3,14-dioxo-3,4,12,14-tetrahydro-1H-pyrano[3′,4′:6,7]indolizino[1,2-b]quinolin-4-yl (S)-4-((R)-4-amino-4-oxo-2-tetradecanamidobutanamido)pentanoate], the “Assay 1 (SGF) (% Remaining @ 1 hours)” value [1] is reported as “C (>75% of the tested compound remaining)”, the “% payload released in ClbP negative (BL21 DE3) at 1:1 ratio of E. coli to fecal bacteria” value [4] is reported as 0.6% and the “% payload released in ClbP positive (Nissle 1917) at 1:1 ratio of E. coli to fecal bacteria” value [5] is reported as 0.9%. The “Assay 2 (SIF) (% @ Remaining 4 hours)” value [3] was “C (>75% of the tested compound remaining)”.
In the case of `CCCCCCCC(=O)N[C@H](CC(N)=O)C(=O)NCCN(C)C(=O)Oc1ccc2c(C)cc(=O)oc2c1` [Example 70, 4-methyl-2-oxo-2H-chromen-7-yl (R)-(2-(4-amino-2-octanamido-4-oxobutanamido)ethyl)(methyl)carbamate], the “Assay 1 (SGF) (% Remaining @ 1 hours)” value [1] is reported as “C (>75% of the tested compound remaining)”, the “% payload released in ClbP negative (BL21 DE3) at 1:1 ratio of E. coli to fecal bacteria” value [4] is reported as 1.9% and the “% payload released in ClbP positive (Nissle 1917) at 1:1 ratio of E. coli to fecal bacteria” value [5] is reported as 25.1%. For the same compound, the “Assay 3 (% Remaining at 24 h)” value [2] was “C (>75% of the tested compound remaining)” and the “Assay 2 (SIF) (% @ Remaining 4 hours)” value [3] was “C (>75% of the tested compound remaining)”.

Reference: patent US11998610B2, “Conjugates and methods of using the same” (Flagship Pioneering Innovations V, Inc., priority 2018, dated 2024)
